Key:
[1] = not given; remark: listed apart in the source
hMSCs [2] = assay: MTT cell viability test; format: cell-based, human; conditions: for cell viability: 500 μM, 48 h, ODsample/ODcontrol; for IC50: 10–500 μM, 24 and 48 h, read-out: half-inhibitory concentration (IC50)
Description: To evaluate the potential biological applications of Ben-IKVAV and PFB-IKVAV, we performed a biocompatibility test of these hydrogelators against hMSCs through MTT [3-(4,5-dimethylthiazol-2-yl)-2,5-diphenyltetrazolium bromide] assay, and the results are presented in Figure 6. The concentrations of Ben-IKVAV and PFB-IKVAV were selected in the range of 10–500 μM, and the cell viability measurements were processed at 24 and 48 h after cell seeding.
The biocompatibilities of Ben-IKVAV and PFB-IKVAV were measured by the MTT cell viability test. The hMSCs were seeded in 24-well plates (density: 50,000 cells per well) with Dulbecco’s modified Eagle’s medium (DMEM, 0.5 mL) containing 10% […] and 1% penicillin/streptomycin solution and then incubated for 24 h. Compounds of Ben-IKVAV and PFB-IKVAV at different concentrations (10, 50, 100, 200, and 500 µM) were added when cells were plated. After 24 and 48 h, the medium was replaced with fresh medium supplemented with MTT reagent (4 mg mL^–1, 0.5 mL per well). After another 4 h, the medium containing MTT was removed, and DMSO (0.5 mL per well) was added to dissolve the formazan crystals. Each of the 24 wells was transferred to a 96-well plate. The optical densities (ODs) of the resulting solutions were measured at 595 nm using an absorbance microplate reader (Infinite F50, TECAN, Männedorf, Switzerland). Cells that had not been subjected to treatment with the compounds were used as the control. The cell viability percentage (%) was calculated from the expression ODsample/ODcontrol.

[3] = Concentration-dependent circular dichroism in water; format: physicochemical; conditions: CD: no signal at 50 and 500 μM, Cotton effect at 1000 μM
Source text: (§1) Since Ben-IKVAV and PFB-IKVAV could self-assemble to form the network of nanofibers and afford the hydrogels, we further studied the driving force for the intermolecular interactions of the hydrogelators using spectroscopic characterization. […] The UV-vis absorption and circular dichroism (CD) spectra of Ben-IKVAV and PFB-IKVAV in water and methanol are presented in Figure 4. The absorption peaks of Ben-IKVAV are at 262 nm and 254 nm in water and methanol, respectively, indicating the redshift feature caused by the aggregation formation in an aqueous solution. […] CD spectra were recorded to understand the structural properties and molecular arrangement of Ben-IKVAV and PFB-IKVAV (Figure 4C,D). At low concentrations of Ben-IKVAV and PFB-IKVAV (50 and 500 μM) in water, no CD signals were detected in the wavelength region 190–350 nm. […] In addition, Fourier-transform infrared spectroscopy (FT-IR) was employed to verify the hydrogen interactions between molecules in the self-assembled state. […] Since thioflavin T (ThT) is a well-known fluorescent dye utilized to identify the presence of amyloid fibrils, we used the ThT fluorescence assay to further confirm the fibrillar peptide structures present in Ben-IKVAV and PFB-IKVAV. It is known that when ThT binds to β-amyloid fibrils, a remarkable enhancement in fluorescence intensity can be detected at 484 nm. […]

[4] = Hydrogelation / self-assembly under physiological conditions; format: physicochemical; conditions: for hydrogel formation: 1 wt.% (ca. 15 mM), pH 7.4; for Tgel-sol: hydrogel
Source text: (§2) For biomedical applications, the self-assembly properties of Ben-IKVAV and PFB-IKVAV were investigated under physiological conditions. […] The corresponding microscopic morphologies were examined by transmission electron microscopy (TEM). […] The nanofibers are intertwined to form fiber bundles with a width of about 17 ± 1 nm. In contrast, PFB-IKVAV produces short nanofibers (diameter around 10 ± 1 nm). These fibrous nanostructures are distributed in water and entangled within a highly organized peptide-amphiphile nanofibers network (i.e., Ben-IKVAV and PFB-IKVAV), allowing for the formation of stable hydrogels. Moreover, the Tgel-sol of Ben-IKVAV and PFB-IKVAV were 65 and 55 °C, respectively. […] Furthermore, the self-assembly of Ben-IKVAV and PFB-IKVAV are viscoelastic gels, because the values of the G′ are higher than those of the loss modulus (G″) in both gels.

[5] = Oscillatory rheology of the hydrogels; format: physicochemical; conditions: 1 wt.%, pH 7.4, oscillatory rheology, ω = 0.1–100 rad·s^−1
Source text: as §2
Figure 3 Frequency-dependent (ω = 0.1–100 rad·s^−1) rheological measurement of Ben-IKVAV (circle) and PFB-IKVAV (square) at a concentration of 1 wt.% under pH 7.4 (solid for G′ and open for G′′).

[6] = Thioflavin T (ThT) fluorescence assay for fibrillar peptide structures; format: physicochemical; conditions: ratio of ThT emission intensities (I0: without adding hydrogelators), emission at 484 nm
Source text: as §1

hMSCs [7] = assay: RT-qPCR analysis of neuronal-specific markers (Nestin, β-tubulin, SNCA, MAP2); format: cell-based, human; conditions: 1000 µM in NIM
Description: To investigate whether IKVAV derivatives can effectively promote the differentiation of stem cells into neural cells, we diluted 1 wt.% of Ben-IKVAV and PFB-IKVAV hydrogels with NIM to 1000 µM, respectively, and cultured hMSCs for 0, 2, and 7 days. The mRNA was collected from NIM, NIM in the presence of Ben-IKVAV, and NIM in the presence of PFB-IKVAV and subjected to real-time quantitative polymerase chain reaction (RT-qPCR) analysis. The expression of neuronal-specific markers, Nestin, β-tubulin, SNCA, and MAP2 are analyzed in this work.
Total RNA was isolated from the control and induced (Neurogenic) hMSCs and quantified with a spectrophotometer (NanoPhotometer™ Pearl Design Edition, Westlake Village, CA, USA). Complementary DNA (cDNA) was synthesized from the total purified RNA (1 μg) using a MMLV High-Performance Reverse Transcriptase kit with a 10 μM OligodT primer at 37 °C for 1 h. […] The RT-qPCR reaction was carried out with initial denaturation at 95 °C for 10 min, followed by 40 cycles of PCR at 95 °C for 15 s, and 60 °C for 60 s.

[8] = Negatively stained TEM of the hydrogels; format: physicochemical; conditions: 1 wt.%, pH 7.4
Source text: as §2
Figure 2 Optical (insets) and negatively stained TEM images of (A) Ben-IKVAV and (B) PFB-IKVAV at a concentration of 1 wt.% under pH 7.4. (Scale bar: 100 nm).

MAP2 in hMSCs = assay: Immunofluorescent staining for neuronal-specific marker MAP2; format: cell-based, human; conditions: neural induction medium in the presence of the peptide, day 7
Source text: After neuronal inductions of hMSCs, immunofluorescent staining for neuronal-specific markers of β-tubulin and MAP2 was achieved. Figure 10 presents immunostaining for β-tubulin (green) with DAPI (blue) co-staining in hMSCs cultured with NIM (control), NIM in the presence of Ben-IKVAV, and NIM in the presence of PFB-IKVAV for days 1, 2, and 7. It can be seen that there is no β-tubulin stained on day 1. […] On the 7th day of culture, a more evident increase of β-tubulin was observed. […] It is speculated that the nuclear entry may be related to the initiation of the regulation of the gene level in the nucleus to make the differentiation more complete. […] After 7 days of differentiation, the cells gradually tended to mature nerve cells. Among these materials, PFB-IKVAV is the best one for helping cell differentiation.
After neuronal inductions of hMSCs, immunostaining was performed for neuronal-specific markers. Cells were fixed with 4% formaldehyde for 15 min and permeabilized with PBST buffer (0.1% Triton X-100 supplemented with BSA). After permeabilization, cells were blocked with Blocking buffer (PBST buffer + 5% serum) for 30 min and then incubated with primary antibodies β-tubulin (1:100) and MAP2 (1:200) at 4 °C overnight. […] Finally, cells were observed under a fluorescence microscope.

hMSCs [9] = assay: Neural differentiation of hMSCs in neural induction medium (cell morphology, neurite outgrowth); format: cell-based, human; conditions: 1000 μM in NIM; for differentiation of hMSCs into neuron-like cells: cultured 0, 2 and 7 days; for cell morphology and axon extension length (average neurite outgrowth length) versus NIM control: days 2 and 7, n = 50
Description: Since Ben-IKVAV and PFB-IKVAV are biocompatible, we then diluted 1 wt.% of Ben-IKVAV and PFB-IKVAV hydrogels with basal medium and neural induction medium (NIM) to 1000 μM, respectively, and cultured them with hMSCs for 0, 2, and 7 days (Figure S2 and Figure 7). […] The fibrous structures of Ben-IKVAV or PFB-IKVAV scattered in the culture medium (NIM) are combined with cell surface receptors to promote neural differentiation. To understand the effect of neural differentiation of hMSCs, the average neurite outgrowth lengths on days 2 and 7 were measured in the control and experimental groups (i.e., Ben-IKVAV in NIM and PFB-IKVAV in NIM).
The hMSCs were grown in 24-well plates (density: 2.4 × 10^5 cells per well) in NIM supplemented with 1% penicillin/streptomycin, 10^−7 M dexamethasone, 50 μg/mL L-Ascorbic acid-2 phosphate, 50 μM indomethacin, 10 μg/mL insulin, and 0.45 mM 3-isobutyl-1-methyl-xanthine. The cells cultured in a basal medium were used as a negative control.

[10] = not given; remark: listed apart in the source
[11] = not given; remark: listed apart in the source

perfluorophenyl-capped Ile-Lys-Val-Ala-Val
FT-IR absorption peak (hydrogen bonding): 1630 cm⁻¹
new absorption band in water [1]: 285 nm

perfluorophenyl-capped Ile-Lys-Val-Ala-Val [PFB-IKVAV, IKVAV N-terminally coupled with 2-(perfluorophenyl)acetic acid; hydrogelator]
cell viability (hMSCs [2]): over 75%
IC50 (hMSCs [2]): > 500 µM
concentration at which the peptide self-assembles into high-order supramolecular structures [3]: higher than 1000 μM
hydrogel formation [4]: form white translucent hydrogels
Tgel-sol [4]: 55 °C
storage modulus (G′) [5]: 2.4 kPa
ThT fluorescence enhancement ratio [6]: 210
cell differentiation ability (comparison of the two peptides) (hMSCs [7]): better cell differentiation ability than Ben-IKVAV
nanofiber diameter [8]: around 10 ± 1 nm
immunofluorescent staining for MAP2 relative to neural induction medium (control) (MAP2 in hMSCs): 4.6 times
differentiation of hMSCs into neuron-like cells (hMSCs [9]): could successfully differentiate hMSCs into neuron-like cells
cell morphology and axon extension length (average neurite outgrowth length) versus NIM control (hMSCs [9]): no significant difference

phenyl-capped Ile-Lys-Val-Ala-Val
absorption peak in methanol [10]: 254 nm
FT-IR absorption peak (hydrogen bonding): 1630 cm⁻¹
absorption peak in water [11]: 262 nm

phenyl-capped Ile-Lys-Val-Ala-Val [Ben-IKVAV, phenyl-capped pentapeptide; IKVAV N-terminally coupled with 2-phenylacetic acid; hydrogelator]
cell viability (hMSCs [2]): over 75%
IC50 (hMSCs [2]): > 500 µM
concentration at which the peptide self-assembles into high-order supramolecular structures [3]: higher than 1000 μM
hydrogel formation [4]: form white translucent hydrogels
Tgel-sol [4]: 65 °C
storage modulus (G′) [5]: 32.0 kPa
ThT fluorescence enhancement ratio [6]: 140
nanofiber diameter [8]: 4 ± 2 nm
width of fiber bundles [8]: about 17 ± 1 nm
differentiation of hMSCs into neuron-like cells (hMSCs [9]): could successfully differentiate hMSCs into neuron-like cells
cell morphology and axon extension length (average neurite outgrowth length) versus NIM control (hMSCs [9]): no significant difference

Source: PMC9267992, “Synthesis, Self-Assembly, and Cell Responses of Aromatic IKVAV Peptide Amphiphiles” (Molecules, 2022)
